From article PMC8338929, “Acetylation turns leucine into a drug by membrane transporter switching” (Scientific Reports, 2021)
pIC50: −log10 of the molar value.

Experiments:
human LAT1 (SLC7A5) = target: T1, human LAT1 (SLC7A5) (Homo sapiens, UniProt Q01650); test: Inhibition of LAT1 uptake of probe substrate gabapentin in MDCK-II cells; type: cell-based; conditions: probe gabapentin 10 µM; positive control JPH203 10 µM
T1 construct: host or cells: MDCK-II
Method: Transport studies with human PepT1 (SLC15A1), LAT1 (SLC7A5) and MCT1 (SLC16A1) were conducted in MDCK-II cells expressing the human transporter or control cells expressing a vector with Green Fluorescence Protein. Cells were transfected using a proprietary, transient transfection system (OPTI-EXPRESSION Technology, BioIVT). The results from the control cells were used to correct for substrate permeation by routes other than the transporter being investigated in the study. […] Specifically, Net Transporter Mediated Substrate Uptake (pmol/min/cm^2) = (Cellular accumulation in the presence of the transporter) − (Mean cellular accumulation in the absence of the transporter). MDCK-II cells were maintained in DMEM with low glucose and 10% FBS. Cells were used at passages up to 40 were seeded at 60,000 ± 10,000 cells/well on 96-well plates approximately 24 h before transfection, and transport assays were performed approximately 48 h after transfection. […]
Transport studies with PepT1 were conducted in 96-well cell culture plate with wells containing a monolayer of MDCK-II cells grown on a permeable support and a corresponding 96-well receiver tray. […] Then a 30-µL sample was taken and mixed with 200 µL of scintillation fluid and scintillation counted (1450 Microbeta, Perkin-Elmer). […]

Human OAT1 (SLC22A6) = target: T2, Human OAT1 (SLC22A6) (Homo sapiens, UniProt Q4U2R8); test: Inhibition of OAT1 uptake of probe substrate chlorothiazide in HEK-293 cells; type: cell-based; conditions: probe chlorothiazide 3 µM; positive control diclofenac 100 µM
T2 construct: host or cells: HEK-293
T2 sequence (Q4U2R8 1-563): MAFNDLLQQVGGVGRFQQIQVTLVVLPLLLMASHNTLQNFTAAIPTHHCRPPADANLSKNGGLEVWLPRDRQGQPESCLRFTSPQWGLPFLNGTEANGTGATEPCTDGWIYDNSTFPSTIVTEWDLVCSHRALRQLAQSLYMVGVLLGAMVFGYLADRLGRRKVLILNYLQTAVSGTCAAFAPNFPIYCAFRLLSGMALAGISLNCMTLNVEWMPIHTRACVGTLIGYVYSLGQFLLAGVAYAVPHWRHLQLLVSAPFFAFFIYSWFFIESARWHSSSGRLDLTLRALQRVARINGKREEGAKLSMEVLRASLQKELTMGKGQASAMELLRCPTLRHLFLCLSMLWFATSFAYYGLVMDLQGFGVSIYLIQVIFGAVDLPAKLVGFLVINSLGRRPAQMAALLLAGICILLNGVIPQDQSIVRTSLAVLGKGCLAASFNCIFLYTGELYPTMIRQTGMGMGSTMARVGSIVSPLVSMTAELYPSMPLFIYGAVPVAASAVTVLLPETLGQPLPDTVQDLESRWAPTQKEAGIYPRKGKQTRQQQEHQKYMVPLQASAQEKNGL
Method: Cells were grown in DMEM (Gibco 4196, high glucose, without sodium pyruvate) supplemented with MEM non-essential amino acids and 10% fetal bovine serum. Cells were re-fed with fresh medium after attachment (4–6 h post-seeding). Cell were plated at a density of 4 × 10^5/well in 24-well plates coated with poly-D-lysine. Transporter assays were conducted in 400 µL of HBSS supplemented with 10 mM Hepes, pH 7.4
The known probe substrates used as positive controls were 3 μM chlorothiazide for OAT1, 2 μM estrone-3-sulfate for OAT3, 10 µM [^3H]gabapentin for LAT1, 50 µM [^3H]Gly-Sar for PepT1, 500 µM thiophene-2-glyoxylic acid for MCT1. The known inhibitors used as controls for each transporter were 100 μM diclofenac for OAT1 and OAT3, 10 µM JPH203 for LAT1 and 200 µM losartan for PepT1. All incubations were in triplicate and contained 1% (OAT1 and OAT3) or 0.5% DMSO (LAT, PepT1 and MCT1). […]
[I] is the inhibitor concentration and IC50 is the inhibitor concentration where the remaining activity is at the midpoint between the Top and Bottom. […] In inhibition experiments, the IC50 is not equivalent to affinity because it is dependent on the concentrations of the substrate, the inhibitor and affinity; therefore, we assumed competitive inhibition, and calculated affinity of inhibition (Ki) with the Cheng-Prusoff equation[49].

T1 sequence (Q01650 whole entry): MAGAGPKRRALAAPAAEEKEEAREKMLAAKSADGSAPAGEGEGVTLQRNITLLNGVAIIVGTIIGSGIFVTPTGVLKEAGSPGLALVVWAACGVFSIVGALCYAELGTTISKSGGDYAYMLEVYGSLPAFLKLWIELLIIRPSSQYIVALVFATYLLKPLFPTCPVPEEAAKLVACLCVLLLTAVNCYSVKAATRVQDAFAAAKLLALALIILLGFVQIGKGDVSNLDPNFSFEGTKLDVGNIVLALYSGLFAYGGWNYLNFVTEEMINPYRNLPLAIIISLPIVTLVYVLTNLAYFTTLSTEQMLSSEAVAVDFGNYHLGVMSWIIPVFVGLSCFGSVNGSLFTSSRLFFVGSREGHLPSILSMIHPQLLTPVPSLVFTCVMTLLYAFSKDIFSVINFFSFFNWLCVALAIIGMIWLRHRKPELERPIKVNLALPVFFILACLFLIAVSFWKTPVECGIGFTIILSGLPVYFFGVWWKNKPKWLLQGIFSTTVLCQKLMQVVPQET
T1 sequence (P08195 102-630 partner): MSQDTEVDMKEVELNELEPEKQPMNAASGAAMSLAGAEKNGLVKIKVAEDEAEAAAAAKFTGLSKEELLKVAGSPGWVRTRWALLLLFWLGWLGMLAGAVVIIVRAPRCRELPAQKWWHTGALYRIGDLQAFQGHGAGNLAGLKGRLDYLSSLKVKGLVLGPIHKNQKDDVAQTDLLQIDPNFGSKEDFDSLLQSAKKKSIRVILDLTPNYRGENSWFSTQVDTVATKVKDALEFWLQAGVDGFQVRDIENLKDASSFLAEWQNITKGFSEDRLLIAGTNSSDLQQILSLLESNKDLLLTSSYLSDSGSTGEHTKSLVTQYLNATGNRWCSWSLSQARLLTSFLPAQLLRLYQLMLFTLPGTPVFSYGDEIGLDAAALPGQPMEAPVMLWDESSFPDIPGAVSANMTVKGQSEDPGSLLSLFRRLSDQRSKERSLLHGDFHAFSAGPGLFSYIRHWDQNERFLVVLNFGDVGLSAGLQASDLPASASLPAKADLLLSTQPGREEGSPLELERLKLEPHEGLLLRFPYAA

## CC(=O)N[C@@H](CC(C)C)C(=O)O [N-acetyl-L-leucine]
Human LAT1 (SLC7A5)
  inhibitor of LAT1: nor an inhibitor
Human OAT1 (SLC22A6)
  pIC50: 2.21
